Legend:
Type in all cases: in vivo
[1] = test system: Phytophthora infestans; experiment: whole plant or invertebrate; settings: tomato late blight
[2] = test system: Pseudoperonospora cubensis; experiment: Test A: cucumber downy mildew, spray the day before inoculation (disease rating, 100 = 100% disease control); settings: spray the day before inoculation, compounds without asterisk (not 40 or 10 ppm)
Text: The test compounds were first dissolved in acetone in an amount equal to 3% of the final volume and then suspended at the desired concentration (in ppm) in acetone and purified water (50/50 mix by volume) containing 250 ppm of the surfactant Trem® 014 (polyhydric alcohol esters). The resulting test suspensions were then used in tests A-E. Spraying a 200 ppm test suspension to the point of run-off on the test plants was the equivalent of a rate of 500 g/ha.
(§1) The test suspension was sprayed to the point of run-off on cucumber seedlings. The following day the seedlings were inoculated with a spore suspension of Pseudoperonospora cubensis (the causal agent of cucumber downy mildew) and incubated in a saturated atmosphere at 20° C. for 24 h, and then moved to a growth chamber at 20° C. for 6 days, after which disease ratings were made.
(§2) Results for Tests A-F are given in Table A. In the table, a rating of 100 indicates 100% disease control and a rating of 0 indicates no disease control (relative to the controls). A dash (-) indicates no test results.

[3] = test system: Erysiphe graminis f. sp. tritici; experiment: Test E: wheat powdery mildew, spray the day before inoculation (disease rating, 100 = 100% disease control)
Outline: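 Protective test: spores of E. graminis f. sp. tritici dusted on wheat seedlings one day after run-off spraying of test suspension (acetone/water with 250 ppm surfactant; 200 ppm = 500 g/ha). Ratings after 7 days in growth chamber at 20° C, 100 = full control, 0 = none, relative to controls.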

[4] = test system: Plasmopara viticola; experiment: Test B: grape downy mildew, spray 24 h after inoculation (disease rating, 100 = 100% disease control)
Outline: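 This is a curative spray test, applied 24 h after inoculation. Compounds in 50/50 acetone–water with 250 ppm Trem 014 surfactant were sprayed to run-off on P. viticola-infected seedlings, with 200 ppm equating to 500 g/ha. Plants were kept 5 days in a 20 °C growth chamber, then 24 h humid, and scored 0–100 for disease control relative to controls.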

[5] = test system: Pseudoperonospora cubensis; experiment: Test F: cucumber downy mildew, DMSO/acetone/water test suspension, spray the day before inoculation (disease rating, 100 = 100% disease control)
Text: The test compounds were first dissolved in dimethyl sulfoxide (DMSO) in an amount equal to 4% of the final volume and then suspended at the desired concentration (in ppm) in acetone and purified water (30/70 mix by volume). The resulting test suspensions were then used in test F. Spraying a 250 ppm test suspension on the test plants was the equivalent of a rate of 250 g/ha.
as §1, with “sprayed” for “sprayed to the point of run-off”
as §2

[6] = test system: Phytophthora infestans; experiment: whole plant or invertebrate; settings: tomato late blight; remark: listed apart in the source
[7] = spray the day before inoculation, compounds without asterisk (not 40 or 10 ppm)
[8] = spray 24 h after inoculation, compounds without asterisk (not 40 or 10 ppm)
[9] = DMSO/acetone/water suspension, spray the day before inoculation, compounds without asterisk
[10] = spray 17 h after inoculation, compounds without asterisk (not 40 or 10 ppm)
[11] = DMSO/acetone/water test suspension, sprayed the day before inoculation, unmarked compounds (no asterisk)
[12] = sprayed the day before inoculation, unmarked compounds (no asterisk, not 40 or 10 ppm)
[13] = sprayed the day before inoculation, 7 days at 20° C., unmarked compounds (no asterisk, not 40 or 10 ppm)
[14] = sprayed 24 h after inoculation, unmarked compounds (no asterisk, not 40 or 10 ppm)
[15] = sprayed 17 h after inoculation, unmarked compounds (no asterisk, not 40 or 10 ppm)

Molecule | Test C disease rating (100 = 100% disease control, 0 = no disease control) [1, 7] | Test A disease rating (100 = 100% disease control, 0 = no disease control) [2] | Test E disease rating (100 = 100% disease control, 0 = no disease control) [3, 7] | Test B disease rating (100 = 100% disease control, 0 = no disease control) [4, 8] | Test F disease rating (100 = 100% disease control, 0 = no disease control) [5, 9] | Test D disease rating (100 = 100% disease control, 0 = no disease control) [6, 10] | Test F disease rating (100 = 100% disease control, 0 = no disease control) [5, 11] | Test C disease rating (100 = 100% disease control, 0 = no disease control) [1, 12] | Test E disease rating (100 = 100% disease control, 0 = no disease control) [3, 13] | Test B disease rating (100 = 100% disease control, 0 = no disease control) [4, 14] | Test D disease rating (100 = 100% disease control, 0 = no disease control) [6, 15]
2-[1-[(2,5-dichlorophenyl)acetyl]-4-piperidinyl]-N-methyl-N-[(1R)-1-phenylpropyl]-4-thiazolecarboxamide [Compound 110] | 0% | 0% | 21% | 53% | – | – | – | – | – | – | –
2-[1-[(2,5-dimethylphenyl)acetyl]-4-piperidinyl]-N-methyl-N-[(1R)-1,2,3,4-tetrahydro-1-naphthalenyl]-4-oxazolecarboxamide [Compound 153] | 0% | 82% | 0% | 28% | – | – | – | – | – | – | –
2-[1-[(2,5-dimethylphenyl)acetyl]-4-piperidinyl]-N-methyl-N-[(1R)-1-phenylpropyl]-4-thiazolecarboxamide [Compound 58] | 56% | 0% | 0% | 20% | – | – | – | – | – | – | –
2-[1-[(3,5-dichloro-1H-pyrazol-1-yl)acetyl]-4-piperidinyl]-N-methyl-N-[(1R)-1,2,3,4-tetrahydro-1-naphthalenyl]-4-thiazolecarboxamide [Compound 238] | 0% | 0% | 0% | 6% | – | – | – | – | – | – | –
2-[1-[[3,5-bis(trifluoromethyl)-1H-pyrazol-1-yl]acetyl]-4-piperidinyl]-N-methyl-N-[(1R)-1,2,3,4-tetrahydro-1-naphthalenyl]-4-thiazolecarboxamide [Compound 210] | 0% | 0% | 0% | 6% | – | – | – | – | – | – | –
2-[1-[[5-chloro-3-(trifluoromethyl)-1H-pyrazol-1-yl]acetyl]-4-piperidinyl]-N-methyl-N-[(1R)-1,2,3,4-tetrahydro-1-naphthalenyl]-4-thiazolecarboxamide [Compound 249] | 0% | 0% | 0% | 0% | – | – | – | – | – | – | –
2-[4-[(2,5-dimethylphenyl)acetyl]-1-piperazinyl]-N-methyl-N-[(1R)-1-phenylethyl]-5-thiazolecarboxamide [Compound 74] | 0% | 0% | 21% | 14% | – | – | – | – | – | – | –
Cc1ccc(C)c(CC(=O)N2CCC(c3nc(C(=O)N(C)C4CSCc5ccccc54)cs3)CC2)c1 (stereo not shown) [compound 172] | 100% | – | 0% | 43% | 99% | 100% | – | – | – | – | –
Cc1ccc(C)c(CC(=O)N2CCC(c3nc(C(=O)N(C)C4CCCc5c4ccc4ccccc54)cs3)CC2)c1 (stereo not shown) [compound 173] | 0% | – | 0% | 0% | 95% | 0% | – | – | – | – | –
Cc1ccc(C)c(CC(=O)N2CCC(c3nc(C(=O)N(C)C4CCCCC4)cs3)CC2)c1 [compound 174] | 100% | – | 0% | 68% | 90% | 63% | – | – | – | – | –
Cc1ccc(C)c(CC(=O)N2CCC(c3nc(C(=O)N(C)C(C)(C)Cc4ccc(F)cc4)cs3)CC2)c1 [compound 175] | 95% | – | 0% | 93% | 43% | 0% | – | – | – | – | –
Cc1ccc(C)c(CC(=O)N2CCC(c3nc(C(=O)N(C)C4CCCC(C)C4)cs3)CC2)c1 (stereo not shown) [compound 176] | 95% | – | 0% | 15% | 49% | 24% | – | – | – | – | –
Cc1ccc(C)c(CC(=O)N2CCC(c3nc(C(=O)N(C)C4CCCC(C)C4C)cs3)CC2)c1 (stereo not shown) [compound 177] | 100% | – | 0% | 86% | 43% | 79% | – | – | – | – | –
Cc1cc(C(F)(F)F)nn1CC(=O)N1CCC(c2nc(C(=O)N(C)C3CCCc4ccccc43)cs2)CC1 (stereo not shown) [compound 187] | 100% | – | 0% | 98% | 93% | 99% | – | – | – | – | –
Cc1cc(C(F)(F)F)nn1CC(=O)N1CCC(c2nc(C(=O)N(C)C3CCCc4cc(O)ccc43)cs2)CC1 (stereo not shown) [compound 190] | 100% | – | 0% | 8% | 93% | 99% | – | – | – | – | –
C[C@@H](NC(=O)c1csc(C2CCN(C(=O)Cc3cccc(Br)c3)CC2)n1)c1ccccc1C(F)(F)F [compound 275] | – | – | – | – | – | – | 0 | 9 | 0 | 30 | 0
CC[C@@H](NC(=O)c1csc(C2CCN(C(=O)Cc3cccc(Br)c3)CC2)n1)c1ccccc1 [compound 278] | – | – | – | – | – | – | 93 | 33 | 0 | 0 | 0
COc1ccc([C@@H](C)NC(=O)c2csc(C3CCN(C(=O)Cc4cccc(Br)c4)CC3)n2)cc1 [compound 279] | – | – | – | – | – | – | 0 | 0 | 0 | 0 | 0
Cc1ccc(C)c(CC(=O)N2CCC(c3nc(C(=O)N[C@H](C)c4ccccc4)cs3)CC2)c1 [compound 283] | – | – | – | – | – | – | 99 | 84 | 0 | 48 | 0

Reference: patent US8586611B2 (priority 2005, dated 2013)
